{"source": "patent US11318140B2", "about": "“Use of TRPV4 antagonists to ameliorate hydrocephalus and related materials and methods” (Indiana University Research and Technology Corporation, priority 2012, dated 2022)", "assay_type_in_all_cases": "in vivo, rat", "key": {"[1]": {"test_system": "Wistar Wpk/Wpk rats", "test": "Hydrocephalic cranial/head enlargement in Wpk/Wpk rats", "conditions": "day 8 through 17", "procedure": "(§1) Wistar Wpk/Wpk rats are an orthologous model of human type 3 Meckel Syndrome. Meckel Syndrome is a cilliopathology with both renal cystic and brain pathology. The brain pathology is severe hydrocephalus with hypoplasia of the corpus callosum.\n(§2) The inventors treated Wpk/Wpk affected as well as noncystic littermates with either TRPV4 agonist (GSK1016797, 0.003 mg/kg body weight) or antagonist (HC067047, 0.03 mg/kg) from day 8 through 17 and evaluated the cranial enlargement and cerebral manifestations. Both drugs were dissolved in DMSO prior to dilution with normal saline prior to injection (i.p.).\n(§3) Wpk/Wpk affected as well as noncystic littermates were treated with TRPV4 antagonist RN-1734 from day 8 through 17 and evaluated the kidney weight and cerebral manifestations (bitemporal head diameter and vertical head dimensions/cranial height). Both drugs were dissolved in DMSO prior to dilution with normal saline prior to injection (i.p.)."}, "[2]": {"test_system": "Wistar Wpk/Wpk rats", "test": "Renal pathology (kidney weight) in Wpk/Wpk rats", "conditions": "day 8 through 17", "procedure": "as §1, §2, §3"}, "[3]": {"test_system": "Wpk/Wpk hydrocephalic rats", "test": "Cortical thickness from coronal sections of Wpk/Wpk hydrocephalic rats", "conditions": "0.03 mg/kg body weight, day 8-17; measured at day 17; p<0.0001", "text": "as §1\nCortical thickness measured from coronal sections of Wpk/Wpk hydrocephalic rats at day 17. […] This finding is in agreement with the decreased degree of hydrocephalus in the antagonist treated animals and, therefore, have a decreased loss in cerebral cortex."}, "[4]": {"conditions": "Example 3: i.p., dose not given"}}, "note": "Entries after “also recorded” stand apart in the source; their conditions may differ."}
{"compound": "Cc1c(C(=O)Nc2cccc(C(F)(F)F)c2)cc(-c2ccccc2)n1CCCN1CCOCC1", "note": "[HC067047]", "values": [{"measurement": "activity and alertness of treated rats", "setting": "[1]; 0.03 mg/kg i.p.", "result": "very active and alert like their nonaffected littermates"}, {"measurement": "head dimensions, treated affected rats versus normal littermates", "setting": "[1]; 0.03 mg/kg i.p.", "result": "no difference in head dimensions"}, {"measurement": "hydrocephalic enlargement of the cranium/brain (head measurements)", "setting": "[1]; 0.03 mg/kg i.p., affected Wpk/Wpk rats", "result": "almost totally ameliorate; also recorded: significantly less hydrocephalic head measurements"}, {"measurement": "renal pathology", "setting": "[2]; Example 2: agonist 0.003 mg/kg, antagonist 0.03 mg/kg, i.p.", "result": "did not affect the renal pathology"}, {"measurement": "cortical thickness", "setting": "[3]", "result": "increased cortical thickness"}]}
{"compound": "CC(C)NCCN(C(C)C)S(=O)(=O)c1ccc(Cl)cc1Cl", "note": "[RN-1734]", "values": [{"measurement": "activity and alertness of treated rats", "setting": "[1]; [4]", "result": "very active and alert like their nonaffected littermates"}, {"measurement": "head dimensions, treated affected rats versus normal littermates", "setting": "[1]; [4]", "result": "no difference in head dimensions"}, {"measurement": "hydrocephalic enlargement of the cranium/brain (bitemporal head diameter, vertical head dimension)", "setting": "[1]; [4]", "result": "almost totally ameliorate"}, {"measurement": "renal pathology (kidney weight)", "setting": "[2]; [4]", "result": "did not affect the renal pathology"}]}
